In PMC12378361, “Design and synthesis of photoswitchable desloratadine ligands for histamine H1 receptor photopharmacology” (RSC Medicinal Chemistry, 2025):
“And” between values parts separate entries of the source, which are not always exact repeats. Equal entries are not always repeated. Where two headings read alike, the source gives them in different places.

Key:
[1] = target: T1, human histamine H1R (Homo sapiens, UniProt P35367); test: Competition radioligand binding with [3H]mepyramine on homogenates of HEK293T cells expressing HA-H1R; conditions: for pKi shift: pKi PSScis – pKi trans (log unit)
T1 construct: expressed in transfected cells; host or cells: HEK293T cells, transient expression; cell homogenates
T1 sequence (P35367 whole entry): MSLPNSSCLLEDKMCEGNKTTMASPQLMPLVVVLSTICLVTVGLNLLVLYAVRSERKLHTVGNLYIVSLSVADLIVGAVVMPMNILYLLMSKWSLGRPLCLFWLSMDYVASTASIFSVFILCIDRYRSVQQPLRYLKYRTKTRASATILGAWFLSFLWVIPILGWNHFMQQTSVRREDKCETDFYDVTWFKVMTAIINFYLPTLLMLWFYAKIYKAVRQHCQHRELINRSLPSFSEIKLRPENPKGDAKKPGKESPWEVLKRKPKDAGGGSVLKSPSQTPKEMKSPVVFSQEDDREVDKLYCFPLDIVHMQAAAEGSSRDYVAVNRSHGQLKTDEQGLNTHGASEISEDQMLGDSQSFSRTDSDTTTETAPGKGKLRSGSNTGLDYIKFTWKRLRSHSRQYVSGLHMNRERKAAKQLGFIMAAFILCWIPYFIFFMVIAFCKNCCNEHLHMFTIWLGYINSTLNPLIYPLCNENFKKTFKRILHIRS
Description: For 10c and 12c, continuous illumination at 365 nm was used to counteract the short half-lives of their PSScis states, while for the other compounds PSScis states were obtained by pre-illumination with 360 nm.
Experimental methods – Pharmacology
The homogenates were stored at −20 °C. […] A]erwards, the cell homogenates were incubated with the respecIve (photo)ligands in […]
black 96 well plates (Greiner). During the incubaIon Ime, 10c and 12c were conInuousl y i l l umi nated with 365 nm (10 V, 2 mW, constant mode) light (96 LED array plates, LAD-1, LEDA-x, Bio Research Center Co., Ltd. Izumi, Japan) to account for thei r short-lived cis isomers. A]er a 4-hour incubaIon Ime, the binding reacIon was stopped using a harvester (PerkinElmer). Upon mulIple wa s h ste ps through a polyethyleneimine-coated GF/C ﬁlter plate (PerkinElmer) receptor-bound radioligand was captured by the GF/C ﬁlter plate. A]er drying the GF/C plate, the ﬁlter-bound radioligand was quanIﬁed by scinIllaIon counIng using MicroScint-O and the Wallac MicroBeta counter (PerkinElmer). […]

[2] = UV-vis absorption spectroscopy; conditions: 25 μM in HBSS buffer containing 50% DMSO; for λmax cis: n–π* band; for λmax trans: π–π* band
Description: (§1) The photochemical properties of the photoswitchable ligands (Table 1, Fig. S2–S10) were first characterized by UV-vis absorption spectroscopy.
(§2) Experimental procedures – Photochemistry
(§3) equipped with a thermostated cell holder set at 20 °C. Fits of UV−vis spectroscopy data were generated
(§4) IlluminaIon for all photochemical experiments was executed using a Suter
(§5) instruments Lambda LS with a 300 W full-spectrum lamp connected to a Suter instruments Lambda
For photochemical analyses,
(§6) IlluminaIons for pharmacological experiments were performed in cylindrical clear glass vials with a
(§7) The typi cal di stance between l i ght source and vi al or cuvete was 2 cm.

[3] = Thermal relaxation of PSScis states; conditions: for Approximate t1/2 (thermal relaxation of PSScis): HBSS buffer containing 50% DMSO; for thermal half-lives (approximated dark stability), order of magnitude in words: in buffer
Description: as §1, §2, §3, §4, §5
For photochemical analyses,
as §6, §7

[4] = Photostationary state by LC-MS at the isosbestic point; conditions: 10 mM in DMSO; for PSStrans (area% trans): after illumination of PSScis state with 434 ± 9 nm; for PSScis (area% cis): after illumination of trans isomer with 360 ± 20 nm
Description: as §1, §2, §3, §4, §5
For photochemical analyses,
as §6, §7

[5] = target: hH1R; conditions: cited from earlier work; for pKi hH1R PSScis: PSScis state; for pKi hH1R trans: trans isomer
[6] = test system: gpH1R; parameters: method as in PMID 30628180; conditions: cited from earlier work; for pA2 gpH1R PSScis: PSScis state; for pA2 gpH1R trans: trans isomer
[7] = PSScis state obtained by pre-illumination with 360 nm, mean ± SEM, n = 3, read-out: pKi PSScis (converted)
[8] = trans isomer (8: template, not photoswitchable), [3H]mepyramine, mean ± SEM, n = 3, read-out: pKi trans (converted)
[9] = Arrhenius extrapolation to 20 °C
[10] = continuous illumination at 365 nm during 4 h incubation at 25 °C, mean ± SEM, n = 3, read-out: pKi PSScis (converted)
[11] = trans isomer (8: template, not photoswitchable), [3H]mepyramine, mean ± SEM, n = 3

SMILES | Ki [1, 7] [nM] | pKi shift [1] | Ki [1, 8] | λmax cis [2] [nm] | λmax trans [2] [nm] | Approximate t1/2 (thermal relaxation of PSScis) [3, 9] [days] | thermal half-lives (approximated dark stability), order of magnitude in words [3] | PSStrans (area% trans) [4] [area%] | PSScis (area% cis) [4] [area%] | also measured
Clc1ccc2c(c1)CCc1ccc(/N=N/c3ccccc3)nc1C2=C1CCNCC1 [10a] | 15.8 | −0.5 | 5.01 nM | 429 | 332 | 38 | months | 85 | 91 | Ki ([1]; trans isomer, read-out: Ki trans): 2 nM; fold higher H1R affinity compared to 11b ([1]; trans isomers): approximately 25 fold; light-induced affinity shift ([1]; trans vs PSScis): 3.2 fold
Clc1ccc2c(c1)CCc1cc(/N=N/c3ccccc3)cnc1C2=C1CCNCC1 [10b] | 3.98 | −0.3 | 2 nM | 430 | 335 | 31 | months | 79 | 87 | –
Clc1ccc2c(c1)CCc1c(/N=N/c3ccccc3)ccnc1C2=C1CCNCC1 [10c] | – | – | 158 nM | 419 | 319 | – | minutes | – | – | Ki [1, 10]: 158 nM; pKi trans [1, 11]: 6.8 ± 0.0; Approximate t1/2 (thermal relaxation of PSScis) ([3]; 20 °C): 0.0104 days
Clc1cc2c(cc1/N=N/c1ccccc1)C(=C1CCNCC1)c1ncccc1CC2 [11a] | 251 | −0.2 | ~158 nM and 158 nM | 429 | 340 | 78 | months | 79 | 97 | –
c1ccc(/N=N/c2ccc3c(c2)CCc2cccnc2C3=C2CCNCC2)cc1 [11b] | 501 | −0.6 | 126 nM | 435 | 338 | 5 | days | 80 | 91 | –
Clc1ccc2c(c1/N=N/c1ccccc1)CCc1cccnc1C2=C1CCNCC1 [11c] | > 1000 | – | > 1000 nM | 419 | – | 211 | months | 82 | 67 | pKi PSScis ([1]; PSScis state obtained by pre-illumination with 360 nm, mean ± SEM, n = 3): <6.0; pKi trans [1, 11]: <6.0
Clc1ccc2c(c1)CCc1cccnc1C2=C1CCN(Cc2ccc(/N=N/c3ccccc3)cc2)CC1 [12a] | 3.16 | −0.1 | 2.51 nM | 432 | 327 | 19 | days | 83 | 93 | –
Clc1ccc2c(c1)CCc1cccnc1C2=C1CCN(Cc2cccc(/N=N/c3ccccc3)c2)CC1 [12b] | 6.31 | −0.1 | 5.01 nM | 423 | 325 | 198 | months | 81 | 91 | –
Clc1ccc2c(c1)CCc1cccnc1C2=C1CCN(Cc2ccccc2/N=N/c2ccccc2)CC1 [12c] | – | −0.1 | 3.98 nM | – | 329 | – | seconds | – | – | Ki [1, 10]: 5.01 nM; Approximate t1/2 (thermal relaxation of PSScis) ([3]; 20 °C): 0.000521 days
CN1CCN(C2=Nc3ccc(Cl)cc3Oc3ccccc32)CC1 [compound 1] | – | – | – | – | – | – | – | – | – | pKi hH1R [5]: 8.1 ± 0.1
CN1CCN(/C(=N\c2ccc(/N=N/c3ccc(S(=O)(=O)O)cc3)cc2)c2ccc(Cl)cc2)CC1 [compound 2] | – | – | – | – | – | – | – | – | – | pA2 gpH1R PSScis [6]: 4.7 ± 0.1; pA2 gpH1R trans [6]: 5.9 ± 0.1
CN1CCN(/C(=N\c2ccc(/N=N/c3ccc([N+](=O)[O-])cc3)cc2)c2ccc(Cl)cc2)CC1 [compound 3] | – | – | – | – | – | – | – | – | – | pA2 gpH1R PSScis [6]: 4.5 ± 0.1; pA2 gpH1R trans [6]: 6.2 ± 0.1
CN1CCC(Oc2ccccc2Cc2ccccc2)CC1 [compound 4] | – | – | – | – | – | – | – | – | – | pKi hH1R [5]: 8.7 ± 0.1
CN1CCC(Oc2cccc(/N=N/c3ccccc3)c2)CC1 [compound 5] | – | – | – | – | – | – | – | – | – | pKi hH1R PSScis [5]: < 5.0; pKi hH1R trans [5]: < 5.0
CN1CCC(Oc2ccccc2/N=N/c2ccccc2)CC1 [compound 6] | – | – | – | – | – | – | – | – | – | pKi hH1R PSScis [5]: 5.1; pKi hH1R trans [5]: 5.2
CCOC(=O)N1CCC(=C2c3ccc(Cl)cc3CCc3cccnc32)CC1 [compound 7, loratadine] | – | – | – | – | – | – | – | – | – | pKi hH1R [5]: 6.8 ± 0.1
Cc1cncc(CN2CCC(=C3c4ccc(Cl)cc4CCc4cccnc43)CC2)c1 [compound 9, rupatadine] | – | – | – | – | – | – | – | – | – | pKi hH1R [5]: 8.4
